# Reference: PubChem BioAssay AID2060354 (Molecular Pharmacology Branch, DTP, NCI, 2025)
# Where “and” joins values, the source holds several entries; their conditions need not be identical. Equal values may be shown once.
# System: 519858-162-T-J1-PDC spheroid growth inhibition
# Experiment: Anticancer human tumor 519858-162-T-J1-PDC patient-derived colon adenocarcinoma cell line growth inhibition [TAK]
# Conditions: spheroids with HUVEC and MSC; for viability, T/C: stronger effect = lower value
# Description: Combinatorial screen of targeted agents with TAK-243 and ipatasertib in multi-cell type tumor spheroids
# A high-throughput screen of multi-cell type tumor spheroids was designed to identify active combinations of targeted small molecules and TAK-243 or ipatasertib. Complex spheroids include a stromal component modeled by human endothelial cells (HUVEC) and fibroblasts modeled by human mesenchymal stem cells (MSCs). The concentration ranges selected for each drug and investigational agent were based upon clinically achievable concentrations if the clinical Cmax of the agent was known.
# Compounds. The drugs and investigational agents: TAK-243 (785004), ipatasertib (767898), everolimus (733504), selumetinib (741078), bortezomib (756655), trametinib (758246), ixazomib (758254), vemurafenib (761431), dabrafenib (764134), sapanisertib (764658), alpelisib (765974), and copanlisib (816437), were obtained from the National Cancer Institute (NCI) Developmental Therapeutics Program Chemical Repository. The FDA-approved anticancer drug set is available from the NCI Developmental Therapeutics Program. […] The stock solutions were prepared in dimethyl sulfoxide (DMSO, Sigma-Aldrich, St. Louis, MO, cat. D2650) at 800-fold the tested concentration and stored at -70 degrees C prior to their use. All drugs and investigational agents were tested over a range starting from a high concentration at or near the clinical Cmax and decreasing in half-log increments. If the clinical Cmax for an agent had not been determined, the highest concentration tested was 10 microM.
# NCI60 Cell Culture. NCI60 cell lines were obtained from the NCI Developmental Therapeutics Program Tumor Repository. For each lot of cells, the Repository performed Applied Biosystems AmpFLSTR Identifiler testing with PCR amplification to confirm consistency with the published Identifier STR profile for each cell line. Cells were kept in continuous culture for no more than 20 passages. The optimal seeding densities for each of the cell lines at each time point assessed were determined prior to performing the concentration response studies. Briefly, the NCI60 human tumor lines were grown as monolayers in RPMI 1640 medium supplemented with 10% FBS and 2 mmol/L L-glutamine.
# An additional 2 lines were from the NCI60 cell line panel including melanomas, MALME-3M and SK-MEL-2. Pooled donor human umbilical vein endothelial cells (HUVEC, Lonza, cat. CC-2519) and human mesenchymal stem cells (hMSC, Lonza, cat. PT-2501) were purchased from Lonza (Walkersville, MD).
# PDMR cell lines were grown in complete medium (DC medium): Dulbecco's modified Eagle's medium (DMEM)/F12 supplemented with 5% fetal bovine serum (FBS), 2 mM L-glutamine, 100 U/mL penicillin and 100 µg/ml streptomycin, 0.4 µg/ml hydrocortisone, 10 ng/ml epidermal growth factor (EGF) recombinant human protein, 24 µg/mL adenine, and 0.1 mg/mL primocin. During culture from frozen stock vials, PDMR cells were cultured in the same medium containing 10 µM Y-27632 (see Table 3). The PDCs were cultured in complete DMEM/F12 media without 10 microM Y-27632 dihydrochloride for at least two passages prior to the screen. The pooled donor HUVEC and hMSC were cultured in endothelial cell growth medium 2 (PromoCell, Heidelberg, Germany, cat. C-22011) and mesenchymal stem cell growth medium 2 (PromoCell, cat. C-28009), respectively. For all experiments, HUVEC and hMSC were used at passages </=5.
# For the pre-screen, cell seeding densities were determined from a titration spanning the range from 5,000 to 313 cells per well. The mct-spheroids including 60% malignant cells, 25% HUVEC and 15% MSC dispensed as a mixture into U-bottom Ultra-Low Attachment 384-well plates (Corning, NY)
# High-throughput Drug Combination Screening.
# Prior to their inoculation into 384-well plates, malignant cells, HUVEC, and hMSC were removed from T flasks using TrypLE express (Thermo Fisher Scientific, cat. 12605036) and harvested by centrifugation for 5 min at 233 x g. […]
# [1] = curve of first compound, second compound 0.3 µM
# [2] = curve of first compound, second compound 0.949 µM
# [3] = curve of first compound, second compound 3 µM
# [4] = curve of first compound, second compound 9.49 µM
# [5] = curve of first compound, second compound 30 µM
# 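Also: spheroids exposed to drugs for 7 days.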
smiles,measurement,setting,value
COc1c(OCCCN2CCOCC2)ccc2c3n(c(=NC(=O)c4cnc(N)nc4)nc12)CCN3,"viability, T/C",compound 0.00316 µM,95.7% and 91.3%
same,"viability, T/C",compound 0.01 µM,80.9% and 100%
same,"viability, T/C",compound 0.0316 µM,81.7% and 72.2%
same,"viability, T/C",compound 0.1 µM,48.8% and 62.1%
same,"viability, T/C",compound 0.316 µM,43.9% and 52.3%
same,"viability, T/C",compound 1 µM,33.8% and 44.4%
same,IC50,curve of compound,0.111 µM and 0.315 µM
CC(=O)Nc1cccc(-n2c(=O)n(C3CC3)c(=O)c3c(Nc4ccc(I)cc4F)n(C)c(=O)c(C)c32)c1 + CC(C)NCC(C(=O)N1CCN(c2ncnc3c2C(C)CC3O)CC1)c1ccc(Cl)cc1,IC50,[1],0.00563 µM
same,IC50,[2],0.00524 µM
same,IC50,[3],0.00589 µM
same,IC50,[4],0.00624 µM
same,IC50,[5],0.00907 µM
same,"viability, T/C","second compound 0.3 µM, first compound 94.9 pM",78.5%
same,"viability, T/C","second compound 0.3 µM, first compound 0.0003 µM",87.2%
same,"viability, T/C","second compound 0.3 µM, first compound 0.000949 µM",72%
same,"viability, T/C","second compound 0.3 µM, first compound 0.003 µM",62.6%
same,"viability, T/C","second compound 0.3 µM, first compound 0.00949 µM",40.1%
same,"viability, T/C","second compound 0.3 µM, first compound 0.03 µM",18.1%
same,"viability, T/C","second compound 0.949 µM, first compound 94.9 pM",99.8%
same,"viability, T/C","second compound 0.949 µM, first compound 0.0003 µM",107%
same,"viability, T/C","second compound 0.949 µM, first compound 0.000949 µM",69%
same,"viability, T/C","second compound 0.949 µM, first compound 0.003 µM",66.1%
same,"viability, T/C","second compound 0.949 µM, first compound 0.00949 µM",37.8%
same,"viability, T/C","second compound 0.949 µM, first compound 0.03 µM",18.4%
same,"viability, T/C","second compound 3 µM, first compound 94.9 pM",82.7%
same,"viability, T/C","second compound 3 µM, first compound 0.0003 µM",97.7%
same,"viability, T/C","second compound 3 µM, first compound 0.000949 µM",86.2%
same,"viability, T/C","second compound 3 µM, first compound 0.003 µM",65.6%
same,"viability, T/C","second compound 3 µM, first compound 0.00949 µM",39.5%
same,"viability, T/C","second compound 3 µM, first compound 0.03 µM",26.5%
same,"viability, T/C","second compound 9.49 µM, first compound 94.9 pM",70.6%
same,"viability, T/C","second compound 9.49 µM, first compound 0.0003 µM",78.9%
same,"viability, T/C","second compound 9.49 µM, first compound 0.000949 µM",73.2%
same,"viability, T/C","second compound 9.49 µM, first compound 0.003 µM",62.7%
same,"viability, T/C","second compound 9.49 µM, first compound 0.00949 µM",42.5%
same,"viability, T/C","second compound 9.49 µM, first compound 0.03 µM",18.2%
same,"viability, T/C","second compound 30 µM, first compound 94.9 pM",109%
same,"viability, T/C","second compound 30 µM, first compound 0.0003 µM",77.6%
same,"viability, T/C","second compound 30 µM, first compound 0.000949 µM",95.4%
same,"viability, T/C","second compound 30 µM, first compound 0.003 µM",68.5%
same,"viability, T/C","second compound 30 µM, first compound 0.00949 µM",48.3%
same,"viability, T/C","second compound 30 µM, first compound 0.03 µM",21.8%
COc1c(OCCCN2CCOCC2)ccc2c3n(c(=NC(=O)c4cnc(N)nc4)nc12)CCN3 + CC(C)NCC(C(=O)N1CCN(c2ncnc3c2C(C)CC3O)CC1)c1ccc(Cl)cc1,IC50,[1],0.269 µM
same,IC50,[2],0.391 µM
same,IC50,[3],> 1 µM
same,IC50,[4],> 1 µM
same,IC50,[5],0.276 µM
same,"viability, T/C","second compound 0.3 µM, first compound 0.00316 µM",87.3%
same,"viability, T/C","second compound 0.3 µM, first compound 0.01 µM",78.4%
same,"viability, T/C","second compound 0.3 µM, first compound 0.0316 µM",65%
same,"viability, T/C","second compound 0.3 µM, first compound 0.1 µM",57.2%
same,"viability, T/C","second compound 0.3 µM, first compound 0.316 µM",49.5%
same,"viability, T/C","second compound 0.3 µM, first compound 1 µM",42.5%
same,"viability, T/C","second compound 0.949 µM, first compound 0.00316 µM",76.6%
same,"viability, T/C","second compound 0.949 µM, first compound 0.01 µM",75.1%
same,"viability, T/C","second compound 0.949 µM, first compound 0.0316 µM",73.8%
same,"viability, T/C","second compound 0.949 µM, first compound 0.1 µM",62.2%
same,"viability, T/C","second compound 0.949 µM, first compound 0.316 µM",56.2%
same,"viability, T/C","second compound 0.949 µM, first compound 1 µM",31.9%
same,"viability, T/C","second compound 3 µM, first compound 0.00316 µM",97.7%
same,"viability, T/C","second compound 3 µM, first compound 0.01 µM",71.4%
same,"viability, T/C","second compound 3 µM, first compound 0.0316 µM",68.1%
same,"viability, T/C","second compound 3 µM, first compound 0.1 µM",61.5%
same,"viability, T/C","second compound 3 µM, first compound 0.316 µM",51%
same,"viability, T/C","second compound 3 µM, first compound 1 µM",50.1%
same,"viability, T/C","second compound 9.49 µM, first compound 0.00316 µM",83.5%
same,"viability, T/C","second compound 9.49 µM, first compound 0.01 µM",87.2%
same,"viability, T/C","second compound 9.49 µM, first compound 0.0316 µM",72%
same,"viability, T/C","second compound 9.49 µM, first compound 0.1 µM",62.1%
same,"viability, T/C","second compound 9.49 µM, first compound 0.316 µM",60.5%
same,"viability, T/C","second compound 9.49 µM, first compound 1 µM",56.4%
same,"viability, T/C","second compound 30 µM, first compound 0.00316 µM",93.6%
same,"viability, T/C","second compound 30 µM, first compound 0.01 µM",77.6%
same,"viability, T/C","second compound 30 µM, first compound 0.0316 µM",73.6%
same,"viability, T/C","second compound 30 µM, first compound 0.1 µM",59.1%
same,"viability, T/C","second compound 30 µM, first compound 0.316 µM",43%
same,"viability, T/C","second compound 30 µM, first compound 1 µM",47.8%
